# Reference: ChEMBL document CHEMBL4130627, “Prodrugs of the Phosphoribosylated Forms of Hydroxypyrazinecarboxamide Pseudobase T-705 and Its De-Fluoro Analogue T-1105 as Potent Influenza Virus Inhibitors” (J Med Chem, 2018)
# Calls of active or inactive are those of the source. No cut-off for these calls is given here.
# Legend:
# [1] = Drug metabolism in MDCK cells assessed as T-1105-RDP formation at 465 uM during 15 hrs by RP-HPLC-UV analysis; type: ADME, cell-based, Canis lupus familiaris; settings: dog
# [2] = Drug metabolism in MDCK cells assessed as T-1105-RTP formation at 465 uM during 15 hrs by RP-HPLC-UV analysis; type: ADME, cell-based, Canis lupus familiaris; settings: dog
# [3] = molecular target: Membrane-associated guanylate kinase, WW and PDZ domain-containing protein 1 (Homo sapiens) (UniProt Q96QZ7); experiment: Inhibition of human recombinant guanylate kinase 1 mediated […] conversion at 25 to 400 uM preincubated for 10 mins followed by enzyme addition measured up to 60 mins by UV absorbance method
# Membrane-associated guanylate kinase, WW and PDZ domain-containing protein 1 (Homo sapiens), sequence (Q96QZ7 whole entry, the tested form may be a part): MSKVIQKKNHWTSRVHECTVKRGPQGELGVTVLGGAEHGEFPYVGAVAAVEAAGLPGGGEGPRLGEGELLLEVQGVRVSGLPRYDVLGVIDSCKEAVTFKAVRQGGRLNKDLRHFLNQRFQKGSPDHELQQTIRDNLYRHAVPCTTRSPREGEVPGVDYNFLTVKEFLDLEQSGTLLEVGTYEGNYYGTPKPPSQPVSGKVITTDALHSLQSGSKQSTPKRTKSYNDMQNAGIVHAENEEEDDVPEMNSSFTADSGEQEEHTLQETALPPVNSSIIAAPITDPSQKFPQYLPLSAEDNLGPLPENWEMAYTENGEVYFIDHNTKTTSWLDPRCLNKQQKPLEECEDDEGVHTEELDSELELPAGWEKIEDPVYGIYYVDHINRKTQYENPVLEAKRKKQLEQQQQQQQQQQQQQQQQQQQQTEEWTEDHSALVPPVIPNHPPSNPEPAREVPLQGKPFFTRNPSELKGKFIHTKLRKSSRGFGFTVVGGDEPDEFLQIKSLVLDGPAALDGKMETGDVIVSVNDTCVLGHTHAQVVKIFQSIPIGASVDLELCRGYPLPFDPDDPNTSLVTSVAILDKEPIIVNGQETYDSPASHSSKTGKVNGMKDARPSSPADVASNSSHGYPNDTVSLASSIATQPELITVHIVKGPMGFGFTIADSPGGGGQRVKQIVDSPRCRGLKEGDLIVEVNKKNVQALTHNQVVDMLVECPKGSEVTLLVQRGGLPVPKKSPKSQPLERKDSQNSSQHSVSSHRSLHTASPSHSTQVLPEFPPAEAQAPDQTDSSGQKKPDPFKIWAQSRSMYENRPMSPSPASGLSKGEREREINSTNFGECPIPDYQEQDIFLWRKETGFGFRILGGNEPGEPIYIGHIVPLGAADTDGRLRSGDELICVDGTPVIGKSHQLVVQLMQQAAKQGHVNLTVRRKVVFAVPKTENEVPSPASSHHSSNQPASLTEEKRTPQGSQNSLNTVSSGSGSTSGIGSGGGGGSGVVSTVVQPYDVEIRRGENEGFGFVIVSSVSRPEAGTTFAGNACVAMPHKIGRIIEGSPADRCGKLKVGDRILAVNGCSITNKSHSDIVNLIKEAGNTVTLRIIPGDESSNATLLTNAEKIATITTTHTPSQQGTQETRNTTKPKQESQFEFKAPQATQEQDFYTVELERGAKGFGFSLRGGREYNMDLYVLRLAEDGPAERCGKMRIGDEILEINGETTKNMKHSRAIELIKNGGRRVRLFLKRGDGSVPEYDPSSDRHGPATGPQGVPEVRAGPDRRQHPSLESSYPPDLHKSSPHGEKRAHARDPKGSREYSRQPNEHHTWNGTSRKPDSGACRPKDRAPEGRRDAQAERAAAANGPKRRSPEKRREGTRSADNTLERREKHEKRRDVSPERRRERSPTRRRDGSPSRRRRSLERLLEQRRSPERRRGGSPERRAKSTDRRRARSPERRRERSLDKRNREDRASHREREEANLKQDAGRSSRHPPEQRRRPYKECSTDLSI
# [4] = Cytotoxicity against MDCK cells assessed as change in cell morphology after 3 days by microscopic analysis; type: cell-based, Canis lupus familiaris; settings: dog
# [5] = Cytotoxicity against MDCK cells assessed as reduction in cell viability after 3 days by formazan-based MTS assay; parameters: species or system Canis lupus familiaris; settings: dog
# [6] = Cytotoxicity against HGPRT deficient 6-thioguanine-resistant MDCK cells assessed as change in cell morphology after 3 days by microscopic analysis; type: cell-based, Canis lupus familiaris; settings: dog
# MDCK [7] = experiment: Prodrug activation in MDCK cells assessed as parent compound remaining at 714 uM after 19 hrs by RP-HPLC-UV analysis; type: cell-based, Canis lupus familiaris; settings: dog
# MDCK [8] = experiment: Prodrug activation in MDCK cells assessed as T-1105-RMP formation at 714 uM after 19 hrs by RP-HPLC-UV analysis; type: cell-based, Canis lupus familiaris; settings: dog
# MDCK [9] = type: cell-based, Canis lupus familiaris; settings: dog, 714 µM
# Influenza A virus [10] = type: functional, organism-based; settings: Influenza A virus (A/X-31(H3N2)); MDCK; 250 uM
# Influenza A virus [11] = type: functional, organism-based; settings: Influenza A virus (A/X-31(H3N2)); MDCK; 25 uM
# Influenza A virus [12] = type: functional, organism-based; settings: Influenza A virus (A/X-31(H3N2)); MDCK; 12 to 50 uM
# Influenza A virus [13] = type: functional, organism-based; settings: Influenza A virus (A/X-31(H3N2)); MDCK; 25 uM; remark: listed apart in the source
# [14] = test system: unidentified influenza virus; experiment: Antiviral activity against Influenza virus infected in human A549 cells; type: functional
# Influenza A virus [15] = type: functional, organism-based; settings: Influenza A virus (A/X-31(H3N2)); MDCK; 25 uM; remark: listed apart in the source
# Influenza A virus [16] = type: functional, organism-based; settings: Influenza A virus (A/X-31(H3N2)); MDCK; 25 uM; remark: listed apart in the source
# Influenza A virus [17] = type: functional, organism-based; settings: Influenza A virus (A/X-31(H3N2)); MDCK; 250 uM; remark: listed apart in the source
# Influenza A virus [18] = type: functional, organism-based; settings: Influenza A virus (A/X-31(H3N2)); MDCK; 12 to 50 uM; remark: listed apart in the source
# Influenza A virus [19] = experiment: microbe, parasite or virus in culture; settings: MDCK, 72 h
# Description: Antiviral activity against Influenza virus A/X-31 infected in MDCK cells assessed as reduction in viral replication at 3 days post infection by microscopic analysis
# Influenza A virus [20] = experiment: microbe, parasite or virus in culture; settings: MDCK, 72 h; remark: listed apart in the source
# Description: Antiviral activity against Influenza virus A/X-31 infected in MDCK cells assessed as reduction in viral replication at 3 days post infection by formazan-based MTS assay
# Influenza B virus [21] = experiment: microbe, parasite or virus in culture; settings: Ned/537/05, MDCK, 72 h
# Description: Antiviral activity against Influenza virus B/Ned/537/05 infected in MDCK cells assessed as reduction in viral replication at 3 days post infection by microscopic analysis
# Influenza B virus [22] = experiment: microbe, parasite or virus in culture; settings: Ned/537/05, MDCK, 72 h; remark: listed apart in the source
# Description: Antiviral activity against Influenza virus B/Ned/537/05 infected in MDCK cells assessed as reduction in viral replication at 3 days post infection by formazan-based MTS assay
# [23] = Prodrug activation in phosphate buffer at pH 7.3 assessed as half life for T-1105-RDP formation at 450 uM after 24 to 120 hrs by RP-HPLC-UV analysis; type: physicochemical; settings: pH 7.3, 450 µM
# Liver carboxylesterase [24] = molecular target: T1, Liver carboxylesterase (Sus scrofa, UniProt Q29550); experiment: Prodrug activation assessed as pig liver esterase mediated metabolite formation at 450 uM up to 150 mins by RP-HPLC-UV analysis; type: ADME; settings: isolated protein, 2.5 h
# T1 sequence (Q29550 whole entry): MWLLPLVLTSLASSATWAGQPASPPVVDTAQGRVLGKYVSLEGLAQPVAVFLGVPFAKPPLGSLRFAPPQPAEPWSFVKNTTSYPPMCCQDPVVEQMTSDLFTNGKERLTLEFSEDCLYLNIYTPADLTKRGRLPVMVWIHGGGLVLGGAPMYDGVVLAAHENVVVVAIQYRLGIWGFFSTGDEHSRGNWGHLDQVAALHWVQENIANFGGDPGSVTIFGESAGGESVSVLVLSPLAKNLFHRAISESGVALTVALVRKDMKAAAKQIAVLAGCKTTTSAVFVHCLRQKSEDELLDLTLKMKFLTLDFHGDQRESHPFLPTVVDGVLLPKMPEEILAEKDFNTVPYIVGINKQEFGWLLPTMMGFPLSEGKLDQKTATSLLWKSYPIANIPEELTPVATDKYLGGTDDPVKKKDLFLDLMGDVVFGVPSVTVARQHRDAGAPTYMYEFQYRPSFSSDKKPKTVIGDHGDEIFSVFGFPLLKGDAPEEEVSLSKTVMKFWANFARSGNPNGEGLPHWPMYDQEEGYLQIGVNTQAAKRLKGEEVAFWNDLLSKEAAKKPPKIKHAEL
# Liver carboxylesterase [25] = molecular target: T1, Liver carboxylesterase; experiment: Drug metabolism assessed as pig liver esterase mediated 4-((((((2R,3S,4R,5R)-5-(3-carbamoyl-2-oxopyrazin-1(2H)-yl)-3,4-dihydroxytetrahydrofuran-2-yl)methoxy)(hydroxy)phosphoryloxy)(hydroxy)phosphoryloxy)methyl)phenyl decanoate formation at 450 uM after 150 mins by RP-HPLC-UV analysis; type: ADME; settings: isolated protein, 2.5 h
# [26] = Drug metabolism in MDCK cells assessed as T-1105-RDP formation at 450 uM up to 4 hrs by RP-HPLC-UV analysis; type: ADME, cell-based, Canis lupus familiaris; settings: dog
# [27] = Drug metabolism in MDCK cells assessed as 4-((((((2R,3S,4R,5R)-5-(3-carbamoyl-2-oxopyrazin-1(2H)-yl)-3,4-dihydroxytetrahydrofuran-2-yl)methoxy)(hydroxy)phosphoryloxy)(hydroxy)phosphoryloxy)methyl)phenyl decanoate formation at 450 uM up to 4 hrs by RP-HPLC-UV analysis; type: ADME, cell-based, Canis lupus familiaris; settings: dog
# MDCK [28] = experiment: Prodrug activation in MDCK cells assessed as T-1105-RMP formation at 450 uM up to 4 hrs by RP-HPLC-UV analysis; type: cell-based, Canis lupus familiaris; settings: dog
# MDCK [29] = experiment: Prodrug activation in MDCK cells assessed as T-1105-RTP formation at 450 uM up to 4 hrs by RP-HPLC-UV analysis; type: cell-based, Canis lupus familiaris; settings: dog
# MDCK [30] = experiment: Prodrug activation in MDCK cells assessed as T-1105-RDP formation at 500 uM after 2 hrs by RP-HPLC-UV analysis; type: cell-based, Canis lupus familiaris; settings: dog
# MDCK [31] = type: cell-based, Canis lupus familiaris; settings: dog, 2 h, 500 µM
# A549 = experiment: Cytotoxicity against human A549 cells assessed as reduction in cell viability at 100 uM; type: cell-based; settings: a549, 100 µM
# [32] = Inhibition of Influenza virus A/X-31 RNA dependent RNA polymerase using ApG primer [adenyl (3'-5') guanosine] and [8-3H]GTP after 1 hr by filter-based assay; parameters: species or system Influenza A virus (A/X-31(H3N2))
# [33] = Inhibition of Influenza virus B/Ned/537/05 RNA dependent RNA polymerase using ApG primer [adenyl (3'-5') guanosine] and [8-3H]GTP after 1 hr by filter-based assay
# Influenza A virus [34] = type: functional, organism-based; settings: Influenza A virus (A/X-31(H3N2)); MDCK; 6 uM
# Influenza A virus [35] = type: functional, organism-based; settings: Influenza A virus (A/X-31(H3N2)); MDCK; 12 to 25 uM
# [36] = test system: unidentified influenza virus; experiment: Potency index, ratio of T-1105 EC99 to compound EC99 for Influenza virus infected in human A549 cells; type: functional
# Influenza A virus [37] = type: functional, organism-based; settings: Influenza A virus (A/X-31(H3N2)); MDCK; 12 to 25 uM; remark: listed apart in the source
# [38] = Drug metabolism in MDCK cells assessed as T-1105-RTP formation at 465 uM after 2 hrs in presence of 5mM ATP by RP-HPLC-UV analysis; type: ADME, cell-based, Canis lupus familiaris; settings: dog
# MDCK [39] = experiment: Prodrug activation in MDCK cells assessed as T-1105-RMP formation at 465 uM after 1 to 840 mins by RP-HPLC-UV analysis; type: cell-based, Canis lupus familiaris; settings: dog
# MDCK [40] = experiment: Cytotoxicity against MDCK cells assessed as reduction in cell viability at 37 uM after 3 days by formazan-based MTS assay; parameters: species or system Canis lupus familiaris; settings: dog, 72 h
# [41] = molecular target: Membrane-associated guanylate kinase, WW and PDZ domain-containing protein 1 (Homo sapiens) (UniProt Q96QZ7); experiment: Inhibition of human recombinant guanylate kinase 1 mediated […] conversion at 400 uM preincubated for 10 mins followed by enzyme addition measured up to 60 mins by UV absorbance method relative to control
# [42] = molecular target: Membrane-associated guanylate kinase, WW and PDZ domain-containing protein 1 (Homo sapiens) (UniProt Q96QZ7); experiment: Inhibition of human recombinant guanylate kinase 1 mediated […] conversion at 200 uM preincubated for 10 mins followed by enzyme addition measured up to 60 mins by UV absorbance method relative to control
# [43] = molecular target: Membrane-associated guanylate kinase, WW and PDZ domain-containing protein 1 (Homo sapiens) (UniProt Q96QZ7); experiment: Inhibition of human recombinant guanylate kinase 1 mediated […] conversion at 100 uM preincubated for 10 mins followed by enzyme addition measured up to 60 mins by UV absorbance method relative to control
# [44] = Drug metabolism in MDCK cells assessed as T-1105-RTP formation at 465 uM in presence of GTP by RP-HPLC-UV analysis; type: ADME, cell-based, Canis lupus familiaris; settings: dog
# MDCK [45] = experiment: Prodrug activation in HGPRT deficient MDCK cells assessed as T-1105-RMP formation at 465 uM after 1 to 840 mins by RP-HPLC-UV analysis; type: cell-based, Canis lupus familiaris; settings: dog
# MDCK [46] = experiment: Prodrug activation in HGPRT deficient 6-thioguanine-resistant MDCK cells by RP-HPLC-UV analysis; type: cell-based, Canis lupus familiaris; settings: dog
# MDCK [47] = experiment: Prodrug activation in MDCK cells by RP-HPLC-UV analysis; type: cell-based, Canis lupus familiaris; settings: dog
compound,measurement,setting,value
NC(=O)c1nccn([C@@H]2O[C@H](COP(=O)(O)O)[C@@H](O)[C@H]2O)c1=O,Drug metabolism,[1],Metabolite_Notdetected
same,Drug metabolism,[2],Metabolite_Notdetected
same,inhibition,[3],inactive
NC(=O)c1nccnc1O,MCC at 72 h,[4],> 250 µM
same,CC50 at 72 h,[5],> 250 µM
same,MCC at 72 h,[6],> 250 µM
same,Stability,MDCK [7],10%
same,Drug metabolism,MDCK [8],Metabolite_Detected
same,Drug metabolism,MDCK [9],Metabolite_Notdetected
same,inhibition,Influenza A virus [10],Active
same,inhibition,Influenza A virus [11],Active
same,inhibition,Influenza A virus [12],Active
same,inhibition,Influenza A virus [13],Active
same,EC99,[14],134 µM
same,inhibition,Influenza A virus [15],inactive
same,inhibition,Influenza A virus [16],inactive
same,inhibition,Influenza A virus [17],Active
same,inhibition,Influenza A virus [18],Active
same,EC50,Influenza A virus [19],6.4 µM
same,EC50,Influenza A virus [20],5.4 µM
same,EC50,Influenza B virus [21],2.8 µM
same,EC50,Influenza B virus [22],2.1 µM
CCCCCCCCCC(=O)Oc1ccc(COP(=O)(OCc2ccc(OC(=O)CCCCCCCCC)cc2)OP(=O)(O)OC[C@H]2O[C@@H](n3ccnc(C(N)=O)c3=O)[C@H](O)[C@@H]2O)cc1.CCN(CC)CC,t1/2,[23],30 h
same,Drug metabolism,Liver carboxylesterase [24],Metabolite_Detected
same,Drug metabolism,Liver carboxylesterase [25],Metabolite_Detected
same,MCC at 72 h,[4],37 µM
same,CC50 at 72 h,[5],> 100 µM
same,MCC at 72 h,[6],22 µM
same,Drug metabolism,[26],Metabolite_Detected
same,Drug metabolism,[27],Metabolite_Detected
same,Drug metabolism,MDCK [28],Metabolite_Detected
same,Drug metabolism,MDCK [29],Metabolite_Notdetected
same,Drug metabolism,MDCK [30],Metabolite_Detected
same,Drug metabolism,MDCK [31],Metabolite_Detected
same,Activity,A549,Non-Toxic
same,IC50,[32],49 to 126 µM
same,IC50,[33],49 to 126 µM
same,inhibition,Influenza A virus [34],Active
same,inhibition,Influenza A virus [35],Active
same,inhibition,Influenza A virus [13],Active
same,EC99,[14],72 µM
same,Ratio,[36],2
same,inhibition,Influenza A virus [15],inactive
same,inhibition,Influenza A virus [16],inactive
same,inhibition,Influenza A virus [37],Active
same,EC50,Influenza A virus [19],1.3 µM
same,EC50,Influenza A virus [20],1 µM
same,EC50,Influenza B virus [21],0.81 µM
same,EC50,Influenza B virus [22],0.56 µM
NC(=O)c1nccn([C@@H]2O[C@H](COP(=O)(O)OP(=O)(O)O)[C@@H](O)[C@H]2O)c1=O,Drug metabolism,[38],Metabolite_Detected
same,Drug metabolism,MDCK [39],Metabolite_Detected
same,Activity,MDCK [40],Non-Toxic
same,inhibition,[41],82%
same,inhibition,[42],62%
same,inhibition,[43],37%
same,Drug metabolism,[44],Metabolite_Detected
same,Drug metabolism,MDCK [45],Metabolite_Detected
NC(=O)c1nc(Br)cnc1O,MCC at 72 h,[4],> 250 µM
same,CC50 at 72 h,[5],> 250 µM
same,MCC at 72 h,[6],> 250 µM
same,Drug metabolism,MDCK [46],Metabolite_Notdetected
same,Drug metabolism,MDCK [47],Metabolite_Notdetected
same,EC50,Influenza A virus [19],> 250 µM
same,EC50,Influenza A virus [20],> 250 µM
same,EC50,Influenza B virus [21],> 250 µM
same,EC50,Influenza B virus [22],> 250 µM
